# From patent US20260248961A1, “UTILIZATION OF A HIBERNATION-LIKE STATE IN NEUROLOGICAL DISEASES” (OKINAWA INSTITUTE OF SCIENCE AND TECHNOLOGY SCHOOL …, priority 2022, published 2026)
# Entries after “also recorded” stand apart in the source; their conditions may differ.
# What was measured:
# [1] = system: pilocarpine model of TLE; experiment: SRS onset monitoring after QIH induction during the latent period, pilocarpine model of TLE; type: in vivo, mice
# Protocol: (§1) Two to three weeks after surgery, mice were first habituated to intraperitoneal (i.p.) injection of saline four times (once per day). On the day of QIH induction, mice were allowed to be habituated to the experimental room (15C) for 1 hour. A dose of 1 mg/kg of clozapine N-oxide (CNO) was i.p. injected to induce QIH in the same experimental room under darkness and low ambient temperatures of about 18-19 degrees celsius. Mice were allowed to stay in the room for 48 hours, and then returned to the housing colony once the QIH state had wore off.
# (§2) On the day of seizure injection, mice were first i.p. injected with 0.07 mL of scopolamine solution (0.5 mg/mL) to prevent adverse peripheral side effects. Thirty minutes later, 280 mg/kg pilocarpine solution was i.p. injected to produce acute seizure. After the mice reach stage 3, 4, or 5 on the Racine scale of behavioral seizures (modified version below), the development of status epilepticus (SE) is confirmed as a continuous state of seizures characterised by a behavioral expression such as a prominent head tic, rigidity of body and tail, and immobility. One to 3 hours after the initial onset of SE, 0.04 mL of Midazolam (5 mg/mL) was i.p. injected to attenuate the seizures.
# Animals are observed by trained personnel on a daily basis, starting with the first day after QIH exit. The monitoring process is performed while animals are in their homecages, in the experimental room. Observation is conducted for one hour per mouse per day using the scale above (table 1) to identify the severity of the behavioral seizures as they occur. For each mouse, the day on which the first seizure is observed, as well as the perceived severity, are recorded.
# [2] = system: contextual fear memory; experiment: Contextual fear conditioning after QIH; type: in vivo, mice; conditions: after 48 hours of QIH and 72 hours recovery
# Protocol: as §1
# Mice were first handled by an experimenter for at least 5 days to reduce their anxiety. During conditioning, the animals were first allowed to explore the context A (30.5L×24.1W×21H cm, metal grid floor, ethanol odor, white light, white noise) and then received 5 foot shocks (0.75 mA for 2 seconds with 30 seconds inter-shock-intervals). Next day, the same animals returned to the shocked context A and a novel neutral context B (30.5L×24.1W×21H cm, plastic flat floor, acetic acid odor, NIR light under darkness, triangle roof). After QIH induction and recovery, the mice were retested both in contexts A and B.
# [3] = system: Q-neurons in the anteroventral periventricular nucleus (AVPe); experiment: QIH induction by CNO with body temperature and extracellular tetrode recording; type: in vivo, mice
# Protocol: All animals were single-housed prior to surgery. During surgery, mice were anesthetized with MMB (a cocktail of medetomidine, midazolam, and butorphanol) and 500 nL of AAV-hSyn-DIO-hM3D(Gq)-mCherry vector was infused through a small craniotomy above AVPe (ML ±0.3; AP +0.38; DV −5.0) at a rate of 50 nL per minute with a micropump syringe (World Precision Instrument). After infusion, the 35 G needle stayed at the infusion site for at least 15 minutes to allow diffusion of the vector. After surgery, animals were carefully monitored to full recovery. For LFP and single/multi-unit recording, we implanted a microdrive consisting of 9 independently adjustable tetrodes (14 um diameter, nichrome wire, gold plated to 200-300 kΩ). In the 2-3 weeks after surgery the depth of the tetrodes were slowly and manually adjusted until stable recording of LFP signals or separatable spike clusters was observed. All adjustments were conducted in a highly familiar small plastic bucket located in the recording room while the animals moved and behaved freely.
# as §1
# All data were acquired using 32-channel Digital Lynx 4SX acquisition system (Neuralynx). The local field potential (LFP) was filtered at 2-9000 Hz. Spike waveforms were filtered between 0.6-6 kHz and those above a peak threshold of […] were time-stamped and digitized at 32,556 Hz. Spikes were manually sorted using SpikeSort3D software (Neuralynx). In short, waveform amplitudes of all spikes recorded from three channels were projected to three dimensional space and putative units were clustered. This procedure was repeated for all combinations of channels and also for energy of spikes. […] A low-pass filter with a cut-off frequency equal to half the target sampling frequency was applied to the LFP prior to downsampling to prevent signal distortion.
# [4] = Seizure induction with pilocarpine; type: in vivo, mice
# Protocol: as §2
# [5] = applied on the epileptogenic zone; even after decades of monitoring (NPL22); cited from earlier work
# [6] = over four thousand adult patients (NPL17); cited from earlier work
smiles,measurement,setting,value
"C[N+]1([O-])CCN(C2=Nc3cc(Cl)ccc3Nc3ccccc32)CC1 [CNO, clozapine-N-oxide]",SRS onset (duration of the latent phase),"[1]; QIH induced 24 h after midazolam, 48 h QIH, vs control animals in QIH chamber without induction, FIG. 2B",drastic delay in the SRS onset; also recorded: significantly delayed
same,severity of SRS (Racine scale),"[1]; QIH vs no QIH during the latent phase, FIG. 2C",no difference in the severity in the SRS
same,time of SRS after induction of the hibernation-like state,[1]; as opposed to 1-2 weeks in the rodent model,several months
same,freezing behavior in Post-Test A,"[2]; vs control animals without induction, FIG. 3B",comparable level of freezing behavior
same,freezing in Post-Test B (neutral context),[2]; all groups,negligible degree of freezing
same,body temperature during QIH,"[3]; after CNO injection (1 mg/kg i.p.), Qrfp-iCre mice with AAV-hSyn-DIO-hM3D(Gq)-mCherry in AVPe, FIG. 1A",reduction in their body temperature
same,spike activity of individual pyramidal cells in the dorsal CA1,"[3]; after QIH induction, FIG. 1C",rapid reduction in their spike activity
same,power spectral density of LFP in the dorsal CA1,"[3]; during QIH, FIG. 1B",substantial reduction in broad frequency ranges
same,time mice stay under QIH after injection,"[3]; intraperitoneal CNO, spontaneous awakening and rewarming afterwards",48 h
same,multi-unit activity recorded from the hypothalamus,"[3]; upon QIH induction, FIG. 1D",reduced upon induction of QIH
"CC[C@@H]1C(=O)OC[C@@H]1Cc1cncn1C [Pilocarpine, pilocarpine]",time to seizures after injection,[4]; 280 mg/kg i.p.,thirty
same,duration of prolonged seizure (status epilepticus),[4]; before termination with an anticonvulsant drug,about two
CCCl [ethyl chloride],seizure outcome,[5],complete remission from seizures
CC[C@@H](C(N)=O)N1CCCC1=O [Levetiracetam],rate of psychiatric and behavioral side effects among the medications,[6],highest rates of side effects
NS(=O)(=O)Cc1noc2ccccc12 [Zonisamide],rate of psychiatric and behavioral side effects among the medications,[6],highest rates of side effects
